According to article PMC10617418, “Identification of tanshinone I as cap-dependent endonuclease inhibitor with broad-spectrum antiviral effect” (Journal of Virology, 2023):
pEC50, pKd: −log10 of the molar value. Read-outs that look alike come from different tables or passages of the source.

How the values were obtained:
[1] = system: HRTV; test: microbe, parasite or virus in culture; assay type: cell-based; conditions: Heartland virus, Vero, 36 h, read-out: EC50 against HRTV
[2] = system: GTV; test: microbe, parasite or virus in culture; assay type: cell-based; conditions: Guertu virus, Vero, 36 h, read-out: EC50 against GTV
[3] = system: IAV (H1N1); test: microbe, parasite or virus in culture; assay type: cell-based; conditions: Influenza A virus, H1N1, MDCK, read-out: EC50 against IAV (H1N1)
[4] = system: LCMV; test: organism not typed; assay type: cell-based, lymphatic choriomeningitis virus; conditions: BHK-21, read-out: EC50 against LCMV
[5] = biological target: T1, SFTSV EndoN (Dabie bandavirus, UniProt I0DF35); assay type: biochemical
[6] = system: SFTSV
[7] = cytotoxicity by CCK8 assay; conditions: African green monkey, Vero cells
[8] = system: SFTSV; test: microbe, parasite or virus in culture; conditions: Severe fever with thrombocytopenia syndrome virus, Vero, 36 h, read-out: EC50 (Vero) against SFTSV
[9] = system: SFTSV; test: microbe, parasite or virus in culture; assay type: cell-based; conditions: Severe fever with thrombocytopenia syndrome virus, Huh-7, 36 h, read-out: EC50 (Huh 7) against SFTSV
[10] = system: SFTSV; assay type: cell-based, severe fever with thrombocytopenia syndrome virus
[11] = system: SFTSV; conditions: mouse, in vivo
[12] = system: IAV (H1N1); conditions: mouse, in vivo
[13] = system: LCMV; conditions: mouse, in vivo
[14] = biological target: T1, SFTSV EndoN; test: biochemical
[15] = biological target: T2, LCMV EndoN (Lymphocytic choriomeningitis virus, UniProt P14240); test: biochemical
T2 sequence (P14240 26-287 limits assumed): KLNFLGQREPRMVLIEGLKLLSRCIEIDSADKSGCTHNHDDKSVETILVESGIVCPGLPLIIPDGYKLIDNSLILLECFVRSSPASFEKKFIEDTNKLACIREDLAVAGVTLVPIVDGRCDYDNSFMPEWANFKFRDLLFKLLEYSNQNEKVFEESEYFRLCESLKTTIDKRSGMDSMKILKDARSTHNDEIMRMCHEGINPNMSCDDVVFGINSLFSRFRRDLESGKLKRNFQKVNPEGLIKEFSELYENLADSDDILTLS

[16] = biological target: T1, SFTSV EndoN; test: biochemical; assay type: binding
[17] = water solubility; assay type: physicochemical
[18] = pharmacokinetic analysis in rats; conditions: 20 mg/kg
[19] = compared with tanshinone IIA; cited from earlier work
[20] = male, Sprague-Dawley, rat, plasma, ip
[21] = male, Sprague-Dawley, rat, plasma, iv

T1 sequence (I0DF35 20-221 limits assumed): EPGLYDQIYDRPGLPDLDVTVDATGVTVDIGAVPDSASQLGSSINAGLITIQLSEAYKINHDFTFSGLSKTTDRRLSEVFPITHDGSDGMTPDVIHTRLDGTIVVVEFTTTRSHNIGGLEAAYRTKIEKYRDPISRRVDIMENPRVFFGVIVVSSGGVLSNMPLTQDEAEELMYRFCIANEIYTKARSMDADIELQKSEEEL

**Q.** With O=C1c2c(O)c(=O)ccn2N([C@@H]2c3ccccc3SCc3c2ccc(F)c3F)[C@@H]2COCCN12 [Baloxavir, baloxavir, reference compound] as the compound, how does the pEC50 [1] read?
**A.** The pEC50 was 5.88.

**Q.** What about the pEC50 [2] of the same compound?
**A.** Its pEC50 is 5.43.

**Q.** What about the pEC50 [3] of the same compound?
**A.** Its pEC50 is 8.99.

**Q.** And the pEC50 [4]?
**A.** The pEC50 was 5.58.

**Q.** And the “inhibition of cleavage of FAM-labeled ssRNA substrate” value [5]?
**A.** The value was “partially inhibited the cleavage”.

**Q.** And the “SI (CC50/EC50)” value [6]?
**A.** Its value is 10.

**Q.** What about the CC50 at 36 h [7] of the same compound?
**A.** Its CC50 at 36 h is 55.2 µM.

**Q.** And the pEC50 [8]?
**A.** The pEC50 was 5.25.

**Q.** Which results are given for Cc1cc(O)c2c(c1)C(=O)c1cc(O)cc(O)c1C2=O [Emodin, emodin]?
**A.** pEC50 [9]: 5.97; inhibition of SFTSV in time-of-addition experiment by IFA [10]: significant inhibitory activities under the post-entry and full-time treatment patterns; SI (CC50/EC50) [6]: 53; CC50 at 36 h [7]: 145 µM; pEC50 [8]: 5.56

**Q.** With COc1c(CC=C(C)C)c(O)cc2oc(=O)c(-c3ccc(O)cc3O)cc12 [Glycycoumarin, glycycoumarin] as the compound, how does the pEC50 [9] read?
**A.** Its pEC50 is 5.43.

**Q.** And the “SI (CC50/EC50)” value [6]?
**A.** The value was 25.

**Q.** And the CC50 at 36 h [7]?
**A.** Its CC50 at 36 h is 46.3 µM.

**Q.** And the pEC50 [8]?
**A.** The pEC50 was 5.73.

**Q.** With COc1c(/C=C/C(=O)c2ccc(O)c(CC=C(C)C)c2)ccc(O)c1O [Licochalcone D, licochalcone D] as the compound, how does the pEC50 [9] read?
**A.** The pEC50 was 5.37.

**Q.** What about the “SI (CC50/EC50)” value [6] of the same compound?
**A.** Its value is 10.

**Q.** And the CC50 at 36 h [7]?
**A.** The CC50 at 36 h was 40 µM.

**Q.** What about the pEC50 [8] of the same compound?
**A.** Its pEC50 is 5.40.

**Q.** With CC(C)=CCc1cc2c(=O)cc(-c3ccc(O)cc3)oc2cc1O [Licoflavone A, licoflavone A] as the compound, how does the pEC50 [9] read?
**A.** Its pEC50 is 5.60.

**Q.** What about the “stage of action in time-of-addition experiment” value (from here on “stage of action”) [10] of the same compound?
**A.** Its value is “acted at both the entry and post-entry stages”.

**Q.** What about the “SI (CC50/EC50)” value [6] of the same compound?
**A.** Its value is 23.

**Q.** And the CC50 at 36 h [7]?
**A.** The CC50 at 36 h was 63.8 µM.

**Q.** And the pEC50 [8]?
**A.** The pEC50 was 5.55.

**Q.** With CC(C)=CCc1c(O)ccc(-c2coc3cc(O)cc(O)c3c2=O)c1O [Licoisoflavone A, licoisoflavone A] as the compound, how does the pEC50 [9] read?
**A.** The pEC50 was 5.82.

**Q.** And the “SI (CC50/EC50)” value [6]?
**A.** The value was 44.

**Q.** And the CC50 at 36 h [7]?
**A.** The CC50 at 36 h was 167 µM.

**Q.** What about the pEC50 [8] of the same compound?
**A.** Its pEC50 is 5.42.

**Q.** Which “stage of action” value [10] does the source give for NC(=O)c1nc(F)c[nH]c1=O [T-705, favipiravir, reference compound] here?
**A.** The value was “comparable inhibition rate under the post-infection and full-time treatment patterns but had a negligible influence on the virions or at the entry stage”.

**Q.** What about the “expression of proinflammatory factors (TNF-α, IL-1β, IL-6, IL-18) in blood and spleen” value [11] of the same compound?
**A.** The value was “markedly decreased”.

**Q.** And the “toxicity in mice (body weight) within 3 days” value [11]?
**A.** The value was “neither tanshinone IIA nor T-705 exhibited obvious toxicity”.

**Q.** And the “viral copies in blood and spleen” value [11]?
**A.** Its value is “effectively reduced”.

**Q.** And the “influence on body weight” value [12]?
**A.** Its value is “negligible influence”.

**Q.** And the “lung pathology (H&E staining)” value [12]?
**A.** Its value is “significant pathological remission”.

**Q.** What about the “influence on body weight” value [13] of the same compound?
**A.** The value was “negligible influence”.

**Q.** What about the pEC50 [8] of the same compound?
**A.** Its pEC50 is ~4.33.

**Q.** With Cc1coc2c1C(=O)C(=O)c1c-2ccc2c(C)cccc12 [Tanshinone I, tanshinone I] as the compound, how does the pEC50 [9] read?
**A.** Its pEC50 is 6.36.

**Q.** What about the pEC50 [1] of the same compound?
**A.** The pEC50 was 6.49.

**Q.** And the pEC50 [2]?
**A.** The pEC50 was 6.35.

**Q.** What about the pEC50 [3] of the same compound?
**A.** Its pEC50 is 5.98.

**Q.** And the pEC50 [4]?
**A.** The pEC50 was 5.53.

**Q.** And the pEC50 [14]?
**A.** Its pEC50 is 3.51.

**Q.** What about the pEC50 [15] of the same compound?
**A.** The pEC50 was 3.44.

**Q.** And the pKd [16]?
**A.** Its pKd is 3.17.

**Q.** What about the “inhibition of cleavage of FAM-labeled ssRNA substrate” value [5] of the same compound?
**A.** The value was “significantly inhibited the cleavage”.

**Q.** And the “inhibition of SFTSV in time-of-addition experiment by IFA” value [10]?
**A.** Its value is “significant inhibitory activities under the post-entry and full-time treatment patterns”.

**Q.** What about the “stage of action” value [10] of the same compound?
**A.** The value was “acted at the post-entry stage”.

**Q.** What about the water solubility [17] of the same compound?
**A.** The water solubility was “poor water solubility”.

**Q.** What about the “SI (CC50/EC50)” value [6] of the same compound?
**A.** Its value is 121.

**Q.** And the body weight change [11]?
**A.** Its body weight change is “less than 10%”.

**Q.** And the “influence on body weight” value [12]?
**A.** The value was “negligible influence”.

**Q.** And the “lung pathology (H&E staining)” value [12]?
**A.** The value was “significant pathological remission”.

**Q.** What about the “viral copies in the lung” value [12] of the same compound?
**A.** The value was “lowered the viral copies in the lung”.

**Q.** What about the “proinflammatory factors in the lung” value ([12]; iv) of the same compound?
**A.** Its value is “downregulated”.

**Q.** And the “influence on body weight” value [13]?
**A.** Its value is “negligible influence”.

**Q.** And the “viral copies and proinflammatory factors in the liver” value ([13]; iv)?
**A.** Its value is “reduced”.

**Q.** And the CC50 at 36 h [7]?
**A.** The CC50 at 36 h was 245 µM.

**Q.** And the bioavailability ([18]; i.g. or i.p., SD rats)?
**A.** Its bioavailability is “poor”.

**Q.** And the AUC(0-t) [18, 20]?
**A.** The AUC(0-t) was 265 ng·h/mL.

**Q.** What about the Cmax [18, 20] of the same compound?
**A.** Its Cmax is 12.8 ng/mL.

**Q.** What about the Tmax [18, 20] of the same compound?
**A.** The Tmax was 2.5 h.

**Q.** What about the half-life [18, 20] of the same compound?
**A.** Its half-life is 35 h.

**Q.** What about the AUC(0-t) [18, 21] of the same compound?
**A.** Its AUC(0-t) is 412 ng·h/mL.

**Q.** And the Cmax [18, 21]?
**A.** Its Cmax is 284 ng/mL.

**Q.** What about the half-life [18, 21] of the same compound?
**A.** Its half-life is 16.1 h.

**Q.** What about the pEC50 [8] of the same compound?
**A.** Its pEC50 is 5.69.

**Q.** With Cc1coc2c1C(=O)C(=O)c1c-2ccc2c1CCCC2(C)C [Tanshinone IIA, tanshinone IIA] as the compound, how does the pEC50 [1] read?
**A.** Its pEC50 is 5.79.

**Q.** What about the pEC50 [2] of the same compound?
**A.** The pEC50 was 5.92.

**Q.** And the pEC50 [3]?
**A.** The pEC50 was 5.40.

**Q.** And the pEC50 [4]?
**A.** Its pEC50 is 5.33.

**Q.** And the pEC50 [14]?
**A.** Its pEC50 is 3.04.

**Q.** What about the pEC50 [15] of the same compound?
**A.** The pEC50 was 3.22.

**Q.** What about the pKd [16] of the same compound?
**A.** Its pKd is 3.13.

**Q.** What about the “inhibition of cleavage of FAM-labeled ssRNA substrate” value [5] of the same compound?
**A.** The value was “significantly inhibited the cleavage”.

**Q.** What about the “SI (CC50/EC50)” value [6] of the same compound?
**A.** Its value is 85.

**Q.** What about the “expression of proinflammatory factors (TNF-α, IL-1β, IL-6, IL-18) in blood and spleen” value [11] of the same compound?
**A.** The value was “markedly decreased”.

**Q.** What about the “toxicity in mice (body weight) within 3 days” value [11] of the same compound?
**A.** Its value is “neither tanshinone IIA nor T-705 exhibited obvious toxicity”.

**Q.** And the “viral copies in blood and spleen” value [11]?
**A.** The value was “effectively reduced”.

**Q.** What about the CC50 at 36 h [7] of the same compound?
**A.** Its CC50 at 36 h is 242 µM.

**Q.** And the pEC50 [8]?
**A.** Its pEC50 is 5.54.

**Q.** Which “antiviral activity against SFTSV relative to tanshinone I or IIA” value [6] does the source give for Cc1c(S(=O)(=O)[O-])oc2c1C(=O)C(=O)c1c-2ccc2c1CCCC2(C)C.[Na+] [tanshinone IIA sulfonate sodium] here?
**A.** Its value is “poorer antiviral activity”.

**Q.** What about the water solubility [19] of the same compound?
**A.** Its water solubility is “significantly improved water solubility”.
